In DBAASP:
Converted amounts (≈) assume the structure as drawn. One block for each molecule: values may come before it.

Tests used:
Test in all cases: ≥ marks a high value that may be exact or a test limit, other limits are often not marked, values filed in µg/mL are converted to µM
[1] = system: Candida albicans CPCC 400416
[2] = system: Escherichia coli CPCC 100521
[3] = system: Staphylococcus aureus CPCC 100520
[4] = system: Bacillus subtilis CICC 10034
[5] = system: Candida albicans CICC 1965
[6] = system: Enterobacter cloacae CICC 21539
[7] = system: Escherichia coli CICC 10293
[8] = system: Listeria innocua CICC 10417
[9] = system: Pseudomonas aeruginosa CICC 21636
[10] = system: Saccharomyces cerevisiae CICC 1002
[11] = system: Salmonella enterica subsp. enterica serovar Paratyphi B CICC 10437
[12] = system: Serratia marcescens ATCC 4112
[13] = system: Staphylococcus aureus CICC 10306
[14] = system: Staphylococcus aureus CICC 10384
[15] = system: Acinetobacter baumannii Q12-0809
[16] = system: Acinetobacter baumannii Q12-0867
[17] = system: Acinetobacter baumannii Q13-0717
[18] = system: Campylobacter jejuni NCTC 11351
Campylobacter jejuni = system: Campylobacter jejuni
[19] = system: Enterococcus faecalis JH-2-2
Escherichia coli K-12 = system: Escherichia coli K-12
Escherichia coli = system: Escherichia coli
[20] = system: Klebsiella pneumoniae ATCC 700603
[21] = system: Klebsiella pneumoniae NCTC 13442
[22] = system: Klebsiella pneumoniae Q14-0095
[23] = system: Listeria monocytogenes NCTC 11994
[24] = system: Pseudomonas aeruginosa ATCC 27853
[25] = system: Pseudomonas aeruginosa PAO1
[26] = system: Pseudomonas aeruginosa Q12-0535
[27] = system: Pseudomonas aeruginosa Q12-0581
[28] = system: Pseudomonas aeruginosa Q14-0208
[29] = system: Pseudomonas aeruginosa Q14-0890
[30] = system: Salmonella typhimurium SL1344
[31] = system: Staphylococcus aureus ATCC 29213
[32] = system: Staphylococcus aureus MRSA-15
[33] = system: Staphylococcus aureus NCTC 12493
[34] = system: Staphylococcus aureus Q14-0320
[35] = system: Staphylococcus aureus Q14-0325
[36] = system: Staphylococcus aureus RN4220
[37] = system: Candida albicans ATCC 10231
Candida krusei CBS 573 = system: Candida krusei CBS 573
[38] = system: Candida parapsilosis CBS 604
[39] = system: Saccharomyces cerevisiae SZMC 0644
[40] = system: Bacillus subtilis CGMCC 1.3376
[41] = system: Escherichia coli CGMCC 1.8732
[42] = system: Klebsiella pneumoniae CGMCC 1.1736
[43] = system: Pseudomonas aeruginosa CGMCC 1.2421
[44] = system: Staphylococcus aureus CGMCC 1.8721
[45] = system: Staphylococcus epidermidis CGMCC 1.4260
Staphylococcus aureus = system: Staphylococcus aureus
Streptococcus sanguinis = system: Streptococcus sanguinis

SMILES: CC[C@H](C)[C@H](NC(=O)[C@H](CCSC)NC(=O)[C@H](CO)NC(=O)[C@@H](NC(=O)[C@@H](NC(=O)[C@@H](N)CCCCN)C(C)C)[C@@H](C)CC)C(=O)O [KVISMI]
MIC [4]: ≥ 46.4 µM | MIC [5]: ≥ 46.4 µM | MIC [6]: 23.2 µM (≈ 16 µg/mL) | MIC [7]: 11.6 µM (≈ 8 µg/mL) | MIC [8]: 5.8 µM (≈ 4 µg/mL) | MIC [9]: 23.2 µM (≈ 16 µg/mL) | MIC [10]: ≥ 46.4 µM | MIC [11]: ≥ 46.4 µM | MIC [12]: ≥ 46.4 µM | MIC [13]: 11.6 µM (≈ 8 µg/mL) | MIC [14]: 11.6 µM (≈ 8 µg/mL)

SMILES: CC[C@H](C)[C@H](NC(=O)[C@H](Cc1ccccc1)NC(=O)[C@H](Cc1ccc(O)cc1)NC(=O)[C@@H](NC(=O)[C@H](CCCCN)NC(=O)[C@H](CC(C)C)NC(=O)[C@@H](NC(=O)[C@H](CCCCN)NC(=O)[C@@H](NC(=O)[C@@H](N)CO)[C@@H](C)CC)[C@@H](C)CC)[C@@H](C)CC)C(=O)N[C@@H](CCC(N)=O)C(=O)NCC(=O)N[C@@H](CCCCN)C(=O)N[C@@H](CCCN=C(N)N)C(=O)N[C@@H](Cc1cnc[nH]1)C(=O)N[C@@H](Cc1c[nH]c2ccccc12)C(=O)N[C@@H](CO)C(=O)N[C@@H](Cc1ccccc1)C(=O)O [SIKILKIYFIQGKRHWSF]
MIC [15]: ≥ 56.5 µM | MIC [16]: 14.1 µM (≈ 32 µg/mL) | MIC [17]: 28.3 µM (≈ 64 µg/mL) | MIC [18]: ≥ 56.5 µM | MIC (Campylobacter jejuni): ≥ 56.5 µM | MIC [19]: ≥ 113 µM | MIC (Escherichia coli K-12): ≥ 113 µM | MIC (Escherichia coli): > 56.5 µM | MIC [20]: 56.5 µM (≈ 128 µg/mL) | MIC [21]: ≥ 56.5 µM | MIC [22]: ≥ 56.5 µM | MIC [23]: ≥ 113 µM | MIC [24]: > 56.5 µM | MIC [25]: 226 µM (≈ 512 µg/mL) | MIC [26]: ≥ 56.5 µM | MIC [27]: 14.1 µM (≈ 32 µg/mL) | MIC [28]: 28.3 µM (≈ 64 µg/mL) | MIC [29]: 7.06 µM (≈ 16 µg/mL) | MIC [30]: ≥ 226 µM | MIC [31]: 14.1 µM (≈ 32 µg/mL) | MIC [32]: ≥ 110 µM | MIC [33]: 14.1 µM (≈ 32 µg/mL) | MIC [34]: 28.3 µM (≈ 64 µg/mL) | MIC [35]: 14.1 µM (≈ 32 µg/mL) | MIC [36]: ≥ 113 µM

SMILES: CC[C@H](C)[C@H](NC(=O)[C@H](Cc1ccccc1)NC(=O)[C@@H](N)CC(C)C)C(=O)N[C@@H](Cc1ccccc1)C(=O)N[C@@H](Cc1ccccc1)C(=O)N[C@@H](Cc1ccccc1)C(N)=O [LFIFFF]
MIC (Staphylococcus aureus): 15.4 µM (≈ 12.8 µg/mL) | MIC (Streptococcus sanguinis): 4.65 µM (≈ 3.87 µg/mL)

Second part, the molecule after the results:

MIC [1]: ≥ 52.5 µM | MIC [2]: 26.2 µM (≈ 64 µg/mL) | MIC [3]: 26.2 µM (≈ 64 µg/mL)
SMILES: CC[C@H](C)[C@H](NC(=O)CN)C(=O)NCC(=O)N[C@@H](CO)C(=O)N[C@@H](C)C(=O)N[C@H](C(=O)N[C@@H](CC(C)C)C(=O)N[C@@H](CO)C(=O)N[C@@H](C)C(=O)NCC(=O)N[C@@H](CCCCN)C(=O)N[C@@H](CO)C(=O)N[C@H](C(=O)N[C@H](C(=O)N[C@@H](CCCCN)C(=O)NCC(=O)N[C@@H](CC(C)C)C(=O)N[C@@H](C)C(=O)N[C@@H](CCCCN)C(=O)NCC(=O)N[C@@H](CC(C)C)C(=O)N[C@@H](C)C(=O)N[C@@H](CCC(=O)O)C(=O)N[C@@H](Cc1cnc[nH]1)C(=O)N[C@@H](Cc1ccccc1)C(N)=O)[C@@H](C)CC)[C@@H](C)CC)[C@@H](C)CC [GIGSAILSAGKSIIKGLAKGLAEHF]

MIC [37]: 42.5 µM (≈ 49.9 µg/mL) | MIC (Candida krusei CBS 573): ≥ 42.5 µM | MIC [38]: ≥ 42.5 µM | MIC [39]: ≥ 42.5 µM
SMILES: NCCCC[C@H](NC(=O)CNC(=O)[C@H](CCCCN)NC(=O)[C@H](CC(N)=O)NC(=O)[C@@H]1CSSC[C@H](N)C(=O)N1)C(=O)N[C@@H](CC(N)=O)C(=O)N[C@@H](CCCCN)C(=O)NCC(=O)N[C@@H](CO)C(=O)N[C@@H](Cc1cnc[nH]1)C(=O)O [CCNKGKNKGSH]

MIC [40]: 6.25 µM (≈ 15 µg/mL) | MIC [41]: 25 µM (≈ 60.2 µg/mL) | MIC [42]: ≥ 50 µM | MIC [43]: 25 µM (≈ 60.2 µg/mL) | MIC [44]: ≥ 50 µM | MIC [45]: 12.5 µM (≈ 30.1 µg/mL)
SMILES: CC[C@H](C)[C@H](NC(=O)[C@H](C)N)C(=O)NCC(=O)N[C@@H](CO)C(=O)N[C@H](C(=O)N[C@@H](CC(C)C)C(=O)NCC(=O)N[C@@H](C)C(=O)N[C@@H](CC(C)C)C(=O)N[C@@H](C)C(=O)N[C@@H](CCCCN)C(=O)NCC(=O)N[C@@H](CC(C)C)C(=O)N1CCC[C@H]1C(=O)N[C@H](C(=O)N[C@@H](CC(C)C)C(=O)N[C@@H](CCCCN)C(=O)N[C@@H](CO)C(=O)N[C@@H](Cc1c[nH]c2ccccc12)C(=O)N[C@H](C(=O)N[C@@H](CCCCN)C(=O)N[C@@H](CC(N)=O)C(=O)N[C@@H](CCCN=C(N)N)C(N)=O)[C@@H](C)CC)[C@@H](C)O)[C@@H](C)CC [AIGSILGALAKGLPTLKSWIKNR]
